Results published in PubChem BioAssay AID282 (DTP/NCI, 2004).
Values joined by “and” are separate entries in the source; they are usually repeats but may differ in a detail not shown here. Equal values may be shown once. Toxic doses and inconclusive results are not listed. Starred links: 1 amine or outer side, 2 acyl side, 3 side chain; linkers in the order of their positions; H or OH if unused. Positions of bridges follow the written chain, without caps; N, C: chain ends. Non-standard residues stand in square brackets, D forms with d. Residues, ends and D or L forms follow the SMILES beside them. Chains are numbered I, II in the order given. Actinocin(9to1) = Cc1c2oc3c(C)ccc(C(=O)[*:1])c3nc-2c(C(=O)[*:2])c(N)c1=O; aThr = C[C@H](O)[C@H](N)C(=O)O; NMeV = CN[C@H](C(=O)O)C(C)C; Sar = CNCC(=O)O

System: BDF1 mice, L1210 terephthalanilide-resistant leukemia ip, survival T/C
Test: NCI In Vivo Anticancer Drug Screen. Data for tumor model L1210 Leukemia resistant to A Terephthalanilide; NSC 38280 (intraperitoneal) in B6D2F1 (BDF1) mice
Settings: endpoint: mean survival time, higher = longer survival
Experimental: The antitumor activity of compounds was measured in mice bearing transplantable tumors. Survival or tumor size were measured and the results are expressed as the measurement made in the treated group (T) divided by the measurement made in the vehicle treated control group (C). The tumor model used in this assay is L1210 Leukemia resistant to A Terephthalanilide; NSC 38280 (intraperitoneal) in B6D2F1 (BDF1) mice

[1] = dose: 125.0 mg/kg/injection, schedule: Q01DX010 (ip), vehicle: saline
[2] = dose: 125.0 mg/kg/injection, schedule: Q01DX Z (ip), vehicle: saline
[3] = dose: 250.0 mg/kg/injection, schedule: Q01DX010 (ip), vehicle: saline
[4] = dose: 250.0 mg/kg/injection, schedule: Q01DX Z (ip), vehicle: saline
[5] = dose: 500.0 mg/kg/injection, schedule: Q01DX010 (ip), vehicle: saline
[6] = dose: 500.0 mg/kg/injection, schedule: Q01DX Z (ip), vehicle: saline
[7] = dose: 62.5 mg/kg/injection, schedule: Q01DX010 (ip), vehicle: saline
[8] = dose: 5.0 mg/kg/injection, schedule: Q01DX010 (ip), vehicle: saline
[9] = dose: 10.0 mg/kg/injection, schedule: Q01DX010 (ip), vehicle: saline
[10] = dose: 20.0 mg/kg/injection, schedule: Q01DX010 (ip), vehicle: saline
[11] = dose: 40.0 mg/kg/injection, schedule: Q01DX010 (ip), vehicle: saline

## N#CCSc1ncnc2nc[nH]c12
dose: 25.0 mg/kg/injection, schedule: Q01DX Z (ip), vehicle: carboxymethylcellulose (CMC)
  T/C: 122 % of control
dose: 30.0 mg/kg/injection, schedule: Q01DX010 (ip), vehicle: saline
  T/C: 112 % of control and 113 % of control
dose: 60.0 mg/kg/injection, schedule: Q01DX010 (ip), vehicle: saline
  T/C: 109 % of control and 115 % of control
dose: 100.0 mg/kg/injection, schedule: Q01DX Z (ip), vehicle: carboxymethylcellulose (CMC)
  T/C: 150 % of control
dose: 120.0 mg/kg/injection, schedule: Q01DX010 (ip), vehicle: saline
  T/C: 91 % of control

## O=CN(O)CC(=O)O
[1]
  T/C: 93 % of control
[2]
  T/C: 100 % of control
[3]
  T/C: 93 % of control
[4]
  T/C: 91 % of control
dose: 375.0 mg/kg/injection, schedule: Q01DX Z (ip), vehicle: saline
  T/C: 101 % of control
[5]
  T/C: 101 % of control
[6]
  T/C: 97 % of control

## CC(=O)N(C)C
[7]
  T/C: 94 % of control and 105 % of control
[1]
  T/C: 92 % of control and 97 % of control
[2]
  T/C: 108 % of control
[3]
  T/C: 90 % of control and 96 % of control
[4]
  T/C: 112 % of control
[5]
  T/C: 96 % of control and 105 % of control
[6]
  T/C: 110 % of control
dose: 750.0 mg/kg/injection, schedule: Q01DX Z (ip), vehicle: saline
  T/C: 114 % of control

## O=CCC(O)C(O)C(O)CO (stereo not drawn)
[7]
  T/C: 96 % of control and 104 % of control
dose: 62.5 mg/kg/injection, schedule: Q01DX Z (ip), vehicle: saline
  T/C: 112 % of control
[1]
  T/C: 113 % of control
[2]
  T/C: 108 % of control
[3]
  T/C: 105 % of control and 113 % of control
[4]
  T/C: 108 % of control
[5]
  T/C: 116 % of control and 118 % of control
[6]
  T/C: 116 % of control

## C[C@@H]1C[C@@H]([C@H](O)CC2CC(=O)NC(=O)C2)C(=O)[C@@H](C)C1
dose: 1.25 mg/kg/injection, schedule: Q01DX Z (ip), vehicle: saline
  T/C: 101 % of control
dose: 2.5 mg/kg/injection, schedule: Q01DX Z (ip), vehicle: saline
  T/C: 107 % of control
[8]
  T/C: 100 % of control and 105 % of control
dose: 5.0 mg/kg/injection, schedule: Q01DX Z (ip), vehicle: saline
  T/C: 106 % of control
dose: 7.5 mg/kg/injection, schedule: Q01DX Z (ip), vehicle: saline
  T/C: 107 % of control
[9]
  T/C: 123 % of control and 113 % of control
[10]
  T/C: 113 % of control and 117 % of control
[11]
  T/C: 115 % of control

## Cc1c2oc3c(C)ccc(C(=O)N[C@@H]4C(=O)N[C@H](C(C)C)C(=O)N5CCC[C@H]5C(=O)N(C)CC(=O)N(C)[C@@H](C(C)C)C(=O)O[C@H]4C)c3nc-2c(C(=O)N[C@@H]2C(=O)N[C@H](C(C)C)C(=O)N3CCC[C@H]3C(=O)N(C)CC(=O)N(C)[C@@H](C(C)C)C(=O)O[C@H]2C)c(N)c1=O (I: [aThr][dV]P[Sar][NMeV] / II: [aThr][dV]P[Sar][NMeV]; ester I:1-I:C, II:1-II:C; linker I:N-II:N via Actinocin(9to1))
dose: 12.5 micrograms/kg/injection, schedule: Q01DX010 (ip), vehicle: other
  T/C: 117 % of control and 118 % of control
dose: 25.0 micrograms/kg/injection, schedule: Q01DX010 (ip), vehicle: other
  T/C: 121 % of control and 118 % of control
dose: 50.0 micrograms/kg/injection, schedule: Q01DX010 (ip), vehicle: other
  T/C: 124 % of control and 117 % of control
dose: 100.0 micrograms/kg/injection, schedule: Q01DX010 (ip), vehicle: other
  T/C: 95 % of control and 103 % of control

## CN(C)c1ccc(/C=C\c2ccnc3ccccc23)cc1
[8]
  T/C: 98 % of control
dose: 8.0 mg/kg/injection, schedule: Q01DX010 (ip), vehicle: saline
  T/C: 100 % of control
dose: 12.0 mg/kg/injection, schedule: Q01DX010 (ip), vehicle: saline
  T/C: 100 % of control
dose: 18.0 mg/kg/injection, schedule: Q01DX010 (ip), vehicle: saline
  T/C: 92 % of control and 95 % of control
dose: 18.75 mg/kg/injection, schedule: Q01DX Z (ip), vehicle: carboxymethylcellulose (CMC)
  T/C: 101 % of control
dose: 27.0 mg/kg/injection, schedule: Q01DX010 (ip), vehicle: saline
  T/C: 89 % of control
dose: 37.5 mg/kg/injection, schedule: Q01DX Z (ip), vehicle: carboxymethylcellulose (CMC)
  T/C: 95 % of control
dose: 50.0 mg/kg/injection, schedule: Q01DX Z (ip), vehicle: carboxymethylcellulose (CMC)
  T/C: 90 % of control

## O=c1[nH]c(=O)n(C2CC(O)C(CO)O2)cc1F (stereo not drawn)
[9]
  T/C: 103 % of control
dose: 12.5 mg/kg/injection, schedule: Q01DX Z (ip), vehicle: saline
  T/C: 118 % of control
[10]
  T/C: 110 % of control and 119 % of control
dose: 25.0 mg/kg/injection, schedule: Q01DX Z (ip), vehicle: saline
  T/C: 116 % of control
dose: 37.5 mg/kg/injection, schedule: Q01DX Z (ip), vehicle: saline
  T/C: 122 % of control
[11]
  T/C: 95 % of control
dose: 50.0 mg/kg/injection, schedule: Q01DX Z (ip), vehicle: saline
  T/C: 178 % of control
dose: 80.0 mg/kg/injection, schedule: Q01DX010 (ip), vehicle: saline
  T/C: 151 % of control
dose: 100.0 mg/kg/injection, schedule: Q01DX Z (ip), vehicle: saline
  T/C: 183 % of control
[6]
  T/C: 119 % of control
